# Counter-ions that a name gives are not always drawn.
# Legend:
# human B1R receptor = target: T1, human B1R receptor (Homo sapiens, UniProt P46663); test: Functional study on the bradykinin receptor 1 (B1R), FLIPR Ca2+ assay, hB1R cells; format: cell-based; details: agonist Lys-Des-Arg9-bradykinin 0.5 nM, % inhibition compared with the maximum achievable inhibition; for inhibition at 10 µM: CHO-K1, test substance 10 μM, read-out: B1R Antagonism, human [10 μM] % Inhibition; for B1R Antagonism, human [10 μM] % Inhibition: test substance 10 μM, hB1R CHO K1 cells
# T1 construct: host or cells: CHO K1 cells (Chinese hamster ovary), stably transfected
# T1 sequence (P46663 1-353): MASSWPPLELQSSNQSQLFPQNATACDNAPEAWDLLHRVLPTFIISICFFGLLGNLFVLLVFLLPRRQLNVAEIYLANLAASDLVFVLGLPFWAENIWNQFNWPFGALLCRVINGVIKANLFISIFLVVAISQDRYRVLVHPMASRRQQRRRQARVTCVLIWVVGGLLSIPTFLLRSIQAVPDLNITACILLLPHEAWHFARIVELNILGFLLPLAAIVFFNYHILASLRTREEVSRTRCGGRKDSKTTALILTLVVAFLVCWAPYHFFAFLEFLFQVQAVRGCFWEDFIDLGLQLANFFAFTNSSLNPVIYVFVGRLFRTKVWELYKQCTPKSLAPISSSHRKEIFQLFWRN
# Procedure, shortened: (§1)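 Cells were dye-loaded 60 min at 37 °C, equilibrated 20 min at room temperature, then given 10 μM compound. Ten minutes later the species-matched agonist was added (0.5 nM Lys-Des-Arg9-bradykinin, human; 100 nM Des-Arg9-bradykinin, rat) and Ca2+ influx suppression expressed as % of maximum inhibition.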
# B1R receptor of the rat = target: T2, B1R receptor of the rat (Rattus norvegicus, UniProt P97583); test: Functional study on the bradykinin receptor 1 (B1R), FLIPR Ca2+ assay, rB1R cells; format: cell-based; details: agonist Des-Arg9-bradykinin 100 nM, % inhibition compared with the maximum achievable inhibition; for inhibition at 10 µM: CHO-K1, test substance 10 μM, read-out: B1R Antagonism, rat [10 μM] % Inhibition; for B1R Antagonism, rat [10 μM] % Inhibition: test substance 10 μM, rB1R CHO K1 cells
# T2 construct: host or cells: CHO K1 cells (Chinese hamster ovary), stably transfected
# T2 sequence (P97583 1-337): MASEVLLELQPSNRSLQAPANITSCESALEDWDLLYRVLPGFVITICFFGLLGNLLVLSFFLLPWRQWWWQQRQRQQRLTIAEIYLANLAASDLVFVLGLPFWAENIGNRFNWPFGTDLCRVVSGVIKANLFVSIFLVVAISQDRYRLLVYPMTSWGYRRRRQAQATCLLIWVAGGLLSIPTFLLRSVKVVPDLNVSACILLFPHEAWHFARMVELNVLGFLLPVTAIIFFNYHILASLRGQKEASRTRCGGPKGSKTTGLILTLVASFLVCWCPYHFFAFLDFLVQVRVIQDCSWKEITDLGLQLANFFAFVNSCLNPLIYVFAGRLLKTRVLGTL
# Procedure, shortened: as §1
inhibition at 10 µM (human B1R receptor) [%],inhibition at 10 µM (B1R receptor of the rat) [%],"B1R Antagonism, human [10 μM] % Inhibition (human B1R receptor) [%]","B1R Antagonism, rat [10 μM] % Inhibition (B1R receptor of the rat) [%]",SMILES
48,98.6,–,–,"COc1ccc(S(=O)(=O)N2c3ccccc3CC2COCC(=O)NCC2CCCN(Cc3ccccc3)C2)cc1 (stereo not drawn) [Example 422, N-((1-benzylpiperidin-3-yl)methyl)-2-((1-(4-methoxyphenylsulfonyl)indolin-2-yl)methoxy)acetamide]"
105,104,–,–,"O=C(COCC1CCCCN1S(=O)(=O)c1c(Cl)cccc1Cl)NCC1CCCN(Cc2ccccc2)C1 (stereo not drawn) [Example 314, N-((1-benzylpiperidin-3-yl)methyl)-2-((1-(2,6-dichlorophenylsulfonyl)piperidin-2-yl)methoxy)acetamide]"
102,103,–,–,"Cc1cc(S(=O)(=O)N2CCCCC2COCC(=O)N2CCN(C3CCN(C)CC3)CC2)c(C)cc1Cl (stereo not drawn) [Example 114, 2-((1-(4-chloro-2,5-dimethylphenylsulfonyl)piperidin-2-yl)methoxy)-1-(4-(1-methylpiperidin-4-yl)piperazin-1-yl)ethanone dihydrochloride]"
92.3,102,–,–,"COc1cc(C)c(S(=O)(=O)N2CCCC2COCC(=O)N2CCN(c3ncc(C(F)(F)F)cc3Cl)CC2)c(C)c1 (stereo not drawn) [Example 469, 1-(4-(3-chloro-5-(trifluoromethyl)pyridin-2-yl)piperazin-1-yl)-2-((1-(4-methoxy-2,6-dimethylphenylsulfonyl)pyrrolidin-2-yl)methoxy)ethanone]"
104,95.4,–,–,"O=C(COCC1CCCCN1S(=O)(=O)c1c(Cl)cccc1Cl)N1CCC(CCN2CCCCC2)CC1 (stereo not drawn) [Example 279, 2-((1-(2,6-dichlorophenylsulfonyl)piperidin-2-yl)methoxy)-1-(4-(2-(piperidin-1-yl)ethyl)piperidin-1-yl)ethanone]"
104,93.4,–,–,"COc1cc(C)c(S(=O)(=O)N2CCCC2COCC(=O)N2CCN(CCN(C(C)C)C(C)C)CC2)c(C)c1 (stereo not drawn) [Example 270, 1-(4-(2-(diisopropylamino)ethyl)piperazin-1-yl)-2-((1-(4-methoxy-2,6-dimethylphenylsulfonyl)pyrrolidin-2-yl)methoxy)ethanone]"
54.1,0,–,–,"O=C(COCC1CCCCN1S(=O)(=O)c1ccc(Cl)c(Cl)c1)N1CCN(CC2CCCCC2)CC1 (stereo not drawn) [Example 68, 1-(4-cyclohexylmethyl-piperazin-1-yl)-2-[1-(3,4-dichloro-phenylsulfonyl)-piperidin-2-ylmethoxy]-ethanone]"
103,103,–,–,"O=C(COCC1CCCCN1S(=O)(=O)c1c(Cl)cccc1Cl)NCc1ccc(CN2CCCC2)cc1 (stereo not drawn) [Example 313, 2-((1-(2,6-dichlorophenylsulfonyl)piperidin-2-yl)methoxy)-N-(4-(pyrrolidin-1-ylmethyl)benzyl)acetamide]"
100,101,–,–,"Cc1cc(F)cc(C)c1S(=O)(=O)N1CCCCC1COCC(=O)N1CCN(C2CCN(C)CC2)CC1 (stereo not drawn) [Example 169, 2-((1-(4-fluoro-2,6-dimethylphenylsulfonyl)piperidin-2-yl)methoxy)-1-(4-(1-methylpiperidin-4-yl)piperazin-1-yl)ethanone dihydrochloride]"
104,106,–,–,"O=C(COCC1CCCCN1S(=O)(=O)c1c(Cl)cc(Cl)cc1Cl)NCc1ccc(CN2CCCCC2)cc1 (stereo not drawn) [Example 4, N-(4-piperidin-1-ylmethyl-benzyl)-2-[1-(2,4,6-trichloro-phenylsulfonyl)-piperidin-2-ylmethoxy]-acetamide]"
104,84.1,–,–,"Cc1cc(C)c(S(=O)(=O)N2CCCCC2COCC(=O)N2CCC(N3CCCCC3)CC2)c(C)c1 (stereo not drawn) [Example 225, 1-(1,4′-bipiperidin-1′-yl)-2-((1-(mesitylsulfonyl)piperidin-2-yl)methoxy)ethanone]"
103,102,–,–,"COc1cc(C)c(S(=O)(=O)N2CCCCC2COCC(=O)N2CCCN(Cc3ccccc3)CC2)c(C)c1 (stereo not drawn) [Example 362, 1-(4-benzyl-1,4-diazepan-1-yl)-2-((1-(4-methoxy-2,6-dimethylphenylsulfonyl)piperidin-2-yl)methoxy)ethanone]"
84.4,110,–,–,"CN1CCN(c2ccc(CNC(=O)COCC3CCCN3S(=O)(=O)c3c(Cl)cc(Cl)cc3Cl)cc2)CC1 (stereo not drawn) [Example 29, N-[4-(4-methyl-piperazin-1-yl)-benzyl]-2-[1-(2,4,6-trichloro-phenylsulfonyl)-pyrrolidin-2-ylmethoxy]-acetamide]"
50,99.7,–,–,"COc1cc(C)c(S(=O)(=O)N2CCCCC2COCC(=O)NCc2ccccc2Oc2cnccn2)c(C)c1 (stereo not drawn) [Example 205, 2-((1-(4-methoxy-2,6-dimethylphenylsulfonyl)piperidin-2-yl)methoxy)-N-(2-(pyrazin-2-yloxy)benzyl)acetamide]"
103,100,–,–,"COc1cc(C)c(S(=O)(=O)N2CCCCC2COCC(=O)N(C)CCC2CCC(N3CCCC3)CC2)c(C)c1 (stereo not drawn) [Example 194, 2-((1-(4-methoxy-2,6-dimethylphenylsulfonyl)piperidin-2-yl)methoxy)-N-methyl-N-(2-(4-(pyrrolidin-1-yl)cyclohexyl)ethyl)acetamide]"
104,100,–,–,"CN1CCC(N2CCN(C(=O)COCC3CCCCN3S(=O)(=O)c3ccccc3C(F)(F)F)CC2)CC1 (stereo not drawn) [Example 571, 1-(4-(1-methylpiperidin-4-yl)piperazin-1-yl)-2-((1-(2-(trifluoromethyl)phenylsulfonyl)piperidin-2-yl)methoxy)ethanone]"
101,97.9,–,–,"COc1ccc(CN2CCN(C(=O)COCC3CCCCN3S(=O)(=O)c3c(C)cc(OC)cc3C)CC2)cc1 (stereo not drawn) [Example 386, 2-((1-(4-methoxy-2,6-dimethylphenylsulfonyl)piperidin-2-yl)methoxy)-1-(4-(4-methoxybenzyl)piperazin-1-yl)ethanone]"
64.8,0,–,–,"COc1cccc(N2CCN(C(=O)COCC3CCCCN3S(=O)(=O)c3ccc(Cl)c(Cl)c3)CC2)c1 (stereo not drawn) [Example 53, 2-[1-(3,4-dichloro-phenylsulfonyl)-piperidin-2-ylmethoxy]-1-[4-(3-methoxy-phenyl)-piperazin-1-yl]-ethanone]"
–,–,102.21,94.88,"O=C(COCC1CCCCN1S(=O)(=O)c1cccc2ccccc12)N1CCCN(Cc2ccccc2)CC1 (stereo not drawn) [Example 6, 1-(4-benzyl-[1,4]diazepan-1-yl)-2-[1-(naphthyl-1-sulfonyl)-piperidin-2-ylmethoxy]-ethanone]"
78.9,98.9,–,–,"COc1cc(C)c(S(=O)(=O)N2CCCCC2COCC(=O)NC(CN(C)C)c2ccccc2)c(C)c1 (stereo not drawn) [Example 261, N-(2-(dimethylamino)-1-phenylethyl)-2-((1-(4-methoxy-2,6-dimethylphenylsulfonyl)piperidin-2-yl)methoxy)acetamide]"
45.5,54.5,–,–,"O=C(COCC1Cc2ccccc2CN1S(=O)(=O)c1ccc(Cl)cc1Cl)N1CCCN(Cc2ccccc2)CC1 (stereo not drawn) [Example 79, 1-(4-benzyl-[1,4]diazepan-1-yl)-2-[2-(2,4-dichloro-phenylsulfonyl)-1,2,3,4-tetra-hydro-isoquinolin-3-ylmethoxy]-ethanone]"
98.3,98.9,–,–,"N#CCCN1CCN(C(=O)COCC2CCCCN2S(=O)(=O)c2c(Cl)cccc2Cl)CC1 (stereo not drawn) [Example 506, 3-(4-(2-((1-(2,6-dichlorophenylsulfonyl)piperidin-2-yl)methoxy)acetyl)piperazin-1-yl)propanenitrile]"
–,–,101.93,100.16,"COc1cc(C)c(S(=O)(=O)N2CCCCC2COCC(=O)N2CCOC(c3cccnc3)C2)c(C)c1 (stereo not drawn) [Example 207, 2-((1-(4-methoxy-2,6-dimethylphenylsulfonyl)piperidin-2-yl)methoxy)-1-(2-(pyridin-3-yl)morpholin)ethanone]"
104,102,–,–,"COc1ccc(N2CCN(C(=O)COCC3CCCN3S(=O)(=O)c3c(Cl)cc(Cl)cc3Cl)CC2)cc1 (stereo not drawn) [Example 328, 1-(4-(4-methoxyphenyl)piperazin-1-yl)-2-((1-(2,4,6-trichlorophenylsulfonyl)pyrrolidin-2-yl)methoxy)ethanone]"
